{"source": "patent EP0935965A1", "about": "“ANTIPYLORI AGENT” (TORAY INDUSTRIES, INC., priority 1996, dated 1997)", "test_system": "acetic acid ulcer", "assay": "Healing accelerating action on acetic acid ulcer of rat", "type": "in vivo, Sprague Dawle rats", "method": "15 Sprague Dawle rats each having a weight of about 220 g were used, and a gastric ulcer was experimentally formed in each of the rats. A gastric ulcer was formed by exposing the gastric anterior wall of each of the rats by ventrotomy under etherization, and injecting 0.03 ml of 20% acetic acid into the submucous layer in the boundary between the fundus glands and the pyloric glands of the gastric anterior wall by a Hamilton microsyringe in accordance with the method of Okabe et al., closing the stomach, and then feeding for 7 days in a normal manner.\nOn the seventh day, five rats were sacrificially killed, and the stomachs were extracted therefrom. The residual 10 rats were divided into two groups consisting of 5 rats each and used as a control group administered with physiologic saline and an experimental group administered with PR-39.\nThe rats in the control group and the experimental group were intraperitoneally administered with 1 ml of physiologic saline and 0.8 mg/ml of PR-39, respectively, once a day. After administration of physiologic saline or PR-39 for 7 days, the stomach was extracted from each of the rats on the day after final administration (14 days after acetic acid administration).\nIn each of the extracted stomachs, the pyloric ring and the esophagogastric junction were clamped, and 10 ml of 70% alcohol was injected into the stomach, followed by fixing. The stomach was cut along the curvatura ventriculi major to expose the gastric mucosal surface, and the gastric ulcer formed was visually observed to measure the surface area thereof.\nSuccessively, a central portion of the gastric ulcer was cut out in parallel to the curvatura ventriculi minor, embedded in paraffin, and then stained with HE to histologically examine the formed gastric ulcer.\nThe examination terms included the length of each of the gastric ulcer, and the thickness of the granulation of the ulcer bottom thereof.", "key": {"[1]": {"conditions": "14 days after acetic acid, histological observation, PR-39 0.8 mg/ml intraperitoneally once a day for 7 days"}}, "note": "Where a SMILES comes first, the peptide text is derived from it."}
{"smiles": "CC[C@H](C)[C@H](NC(=O)[C@H](CCCNC(=N)N)NC(=O)[C@@H]1CCCN1C(=O)[C@@H]1CCCN1C(=O)[C@H](CC(C)C)NC(=O)[C@H](CCCNC(=N)N)NC(=O)[C@@H]1CCCN1C(=O)[C@@H]1CCCN1C(=O)[C@H](Cc1ccccc1)NC(=O)[C@H](Cc1ccccc1)NC(=O)[C@@H]1CCCN1C(=O)[C@@H]1CCCN1C(=O)[C@@H]1CCCN1C(=O)[C@H](CCCNC(=N)N)NC(=O)[C@@H]1CCCN1C(=O)[C@H](CCCNC(=N)N)NC(=O)[C@@H]1CCCN1C(=O)[C@H](CC(C)C)NC(=O)[C@H](Cc1ccc(O)cc1)NC(=O)[C@@H]1CCCN1C(=O)[C@@H]1CCCN1C(=O)[C@H](CCCNC(=N)N)NC(=O)[C@@H]1CCCN1C(=O)[C@H](CCCNC(=N)N)NC(=O)[C@H](CCCNC(=N)N)NC(=O)[C@@H](N)CCCNC(=N)N)C(=O)N1CCC[C@H]1C(=O)N1CCC[C@H]1C(=O)NCC(=O)N[C@@H](Cc1ccccc1)C(=O)N1CCC[C@H]1C(=O)N1CCC[C@H]1C(=O)N[C@@H](CCCNC(=N)N)C(=O)N[C@@H](Cc1ccccc1)C(=O)N1CCC[C@H]1C(=O)N1CCC[C@H]1C(=O)N[C@@H](CCCNC(=N)N)C(=O)N[C@@H](Cc1ccccc1)C(=O)N1CCC[C@H]1C(N)=O", "note": "[PR-39, proline arginine rich peptide-39] (H-RRRPRPPYLPRPRPPPFFPPRLPPRIPPGFPPRFPPRFP-NH2; N-terminus and C-terminus assumed)", "values": [{"measurement": "Ulcer surface area", "setting": "14 days after acetic acid, PR-39 0.8 mg/ml intraperitoneally once a day for 7 days", "result": "2.82 ± 1.96 mm2; average±SEM"}, {"measurement": "visual observation of gastric mucosa", "setting": "14 days after acetic acid, compared with the control group (physiologic saline)", "result": "ulcer scar accompanied with concentration of the mucosal folds of gallbladder was observed"}, {"measurement": "Diameter of ulcer", "setting": "[1]", "result": "1.58 ± 0.49", "unit": "mm"}, {"measurement": "Thickness of granulation tissue", "setting": "[1]", "result": "1.39 ± 0.59", "unit": "mm"}, {"measurement": "ulcer area as compared with the control group", "setting": "PR-39 administered every day in the healing stage (7th to 14th day)", "result": "significantly decreased"}, {"measurement": "thickness of granulation at the ulcer bottom", "setting": "PR-39 administration", "result": "significantly decreased"}, {"measurement": "length of an ulcer (histological observation)", "setting": "PR-39 administration group", "result": "significantly decreased"}]}
